Where a name gives a salt, the structure may show the parent alone. Read-outs that look alike come from different tables or passages of the source.

From patent US8686146B2, “Azaindenoisoquinoline topoisomerase I inhibitors” (Purdue Research Foundation, priority 2012, dated 2014) come the findings set out here.

The subject of one series is SF-539. The experiment in a line: NCI screen antiproliferative activity, CNS SF-539. As for the experimental part:
(§1) Cells of approximately 60 different human cancer cell lines were incubated for 48 h with five 10-fold dilutions of the tested compounds starting from 100 μM and then treated with sulforhodamine B dye. The ratios of recorded optical densities relative to that of the control were plotted as a function of the common logarithm of the tested compound concentrations. […] The GI50 and the mean graph midpoint (MGM) values of the prepared indenoisoquinolines in selected cell lines are presented in Table I.
(§2) The antiproliferative activity of each compound was determined in the National Cancer Institute (NCI) screen as described above. Cells of approximately 60 different human cancer cell lines were incubated for 48 h with five 10-fold dilutions of the test compounds starting from 100 μM, and then treated with sulforhodamine B dye. The ratios of recorded optical densities relative to those of the control were plotted as a function of the common logarithm of the tested compound concentrations. […] The GI50 and the mean graph midpoint (MGM) values of the prepared (aza)indeno-isoquinolines in selected cell lines are presented in Table 2.

In series [1] the test system is approximately 60 different human cancer cell lines. The experiment in a line: NCI screen, mean graph midpoint over all cell lines. It counts as cell-based. The following applies: all human cancer cell lines successfully tested, 48 h. As for the experimental part:
as §1, §2

A further series concerns MCF7. Briefly: NCI screen antiproliferative activity, breast MCF7. The protocol:
as §1, §2

Another series relates to HOP-62. Briefly: NCI screen antiproliferative activity, lung HOP-62. The protocol:
as §1, §2

A further series has as its system UACC-62. The experiment in a line: NCI screen antiproliferative activity, melanoma UACC-62. The protocol:
as §1, §2

The subject of the next series is DU-145. Briefly: NCI screen antiproliferative activity, prostate DU-145. The protocol:
as §1, §2

For a further series, the system named is HCT-116. Briefly: NCI screen antiproliferative activity, colon HCT-116. The protocol: as §1, §2
The subject of another series is OVCAR-3. Briefly: NCI screen antiproliferative activity, ovarian OVCAR-3. As for the experimental part: as §1, §2
A further series relates to SN12C. Briefly: NCI screen antiproliferative activity, renal SN12C. As for the experimental part:
as §1, §2

For the next series, the target named is T1, human recombinant Top1 (Homo sapiens, UniProt P11387).
T1 construct: made in house
T1 sequence (P11387 1-765): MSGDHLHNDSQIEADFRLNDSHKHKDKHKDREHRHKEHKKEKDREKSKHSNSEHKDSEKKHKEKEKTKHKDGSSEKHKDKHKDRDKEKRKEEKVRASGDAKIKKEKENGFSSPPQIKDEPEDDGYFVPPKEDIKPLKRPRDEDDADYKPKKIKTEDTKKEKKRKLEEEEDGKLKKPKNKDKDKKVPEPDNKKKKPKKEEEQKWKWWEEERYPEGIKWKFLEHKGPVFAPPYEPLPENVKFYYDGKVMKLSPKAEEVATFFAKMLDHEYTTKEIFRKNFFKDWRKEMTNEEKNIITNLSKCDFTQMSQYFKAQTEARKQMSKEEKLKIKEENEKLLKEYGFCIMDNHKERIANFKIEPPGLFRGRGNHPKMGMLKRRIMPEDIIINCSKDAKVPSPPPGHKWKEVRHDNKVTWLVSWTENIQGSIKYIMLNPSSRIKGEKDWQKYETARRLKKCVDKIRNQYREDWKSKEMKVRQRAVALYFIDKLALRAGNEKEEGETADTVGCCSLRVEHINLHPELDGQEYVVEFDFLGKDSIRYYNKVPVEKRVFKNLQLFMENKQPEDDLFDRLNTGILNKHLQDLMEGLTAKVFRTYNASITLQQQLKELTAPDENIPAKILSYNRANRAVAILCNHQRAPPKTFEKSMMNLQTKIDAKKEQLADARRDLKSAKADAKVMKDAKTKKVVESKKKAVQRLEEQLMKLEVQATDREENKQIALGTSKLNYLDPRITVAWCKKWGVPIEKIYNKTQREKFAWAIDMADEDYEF
Briefly: Top1-mediated DNA cleavage assay. It is filed as biochemical. The following applies: semiquantitative, relative to compounds 1 and 2. The protocol: Unincorporated [^32P]dGTP was removed using mini Quick […] columns (Roche, Indianapolis, Ind.), and the eluate containing the […] DNA substrate was collected. […] Aliquots of each reaction mixture were subjected to 20% denaturing PAGE. […] The DNA fragments were separated on a denaturing gel. […] All of the target compounds were tested for induction of DNA damage in Top1-mediated DNA cleavage assays, as described above.

[2] abbreviates: Homo sapiens, MCF7, 48 h, read-out: cytotoxicity (GI50) breast MCF7, 48 h, sulforhodamine B, single determination, Table 1.
Where [3] appears, read: Homo sapiens, HOP-62, 48 h, read-out: cytotoxicity (GI50) lung HOP-62, 48 h, sulforhodamine B, single determination, Table 1.
Setting [4] is: Homo sapiens, UACC-62, 48 h, read-out: cytotoxicity (GI50) melanoma UACC-62, 48 h, sulforhodamine B, single determination, Table 1.
Setting [5] is: Homo sapiens, HCT-116, 48 h, read-out: cytotoxicity (GI50) colon HCT-116, 48 h, sulforhodamine B, single determination, Table 1.
[6] abbreviates: Homo sapiens, OVCAR-3, 48 h, read-out: cytotoxicity (GI50) ovarian OVCAR-3, 48 h, sulforhodamine B, single determination, Table 1.
[7] abbreviates: Homo sapiens, SN12C, 48 h, read-out: cytotoxicity (GI50) renal SN12C, 48 h, sulforhodamine B, single determination, Table 1.

The GI50 is the concentration giving 50% growth inhibition. Take `COc1cc2c3c(n(CCCN(C)C)c(=O)c2cc1OC)-c1ncccc1C3=O` [Compound 19, 7-Aza-5,6-dihydro-6-(3-dimethylaminopropyl)-2,3-dimethoxy-5,11-dioxo-11H-indeno[1,2-c]isoquinoline Hydrochloride]: the GI50 in the series on SF-539 (Homo sapiens, 48 h, read-out: cytotoxicity (GI50) CNS SF-539, 48 h, sulforhodamine B, single determination, Table 2) worked out at 4100 nM; in the series on MCF7 (setting [2]), 440 nM; in the series on HOP-62 (setting [3]), 3390 nM; in the series with HOP-62 (Homo sapiens, HOP-62, 48 h, read-out: cytotoxicity (GI50) lung HOP-62, 48 h, sulforhodamine B, single determination, Table 2) it was 3400 nM; in the series on UACC-62 (setting [4]), 13200 nM; in the series on UACC-62 (Homo sapiens, UACC-62, 48 h, read-out: cytotoxicity (GI50) melanoma UACC-62, 48 h, sulforhodamine B, single determination, Table 2), 13000 nM. Moreover, the GI50 in the series with DU-145 (Homo sapiens, DU-145, 48 h, read-out: cytotoxicity (GI50) prostate DU-145, 48 h, sulforhodamine B, single determination, Table 2) worked out at 1700 nM; with HCT-116 (setting [5]), 1580 nM; with HCT-116 (Homo sapiens, HCT-116, 48 h, read-out: cytotoxicity (GI50) colon HCT-116, 48 h, sulforhodamine B, single determination, Table 2), 1600 nM; in the series with OVCAR-3 (setting [6]) it was 3550 nM; in the series with OVCAR-3 (Homo sapiens, OVCAR-3, 48 h, read-out: cytotoxicity (GI50) ovarian OVCAR-3, 48 h, sulforhodamine B, single determination, Table 2) it was 3600 nM; in the series with SN12C (setting [7]) it was 3160 nM. Further, in the series with SN12C (Homo sapiens, SN12C, 48 h, read-out: cytotoxicity (GI50) renal SN12C, 48 h, sulforhodamine B, single determination, Table 2), the GI50 was determined as 3200 nM. Besides, the “MGM (mean graph midpoint for growth inhibition)” value stood at 4.50 µM in series [1] (Table 1) and 4.5 µM in series [1] (Table 2). For the same molecule, the “Top1 Cleavage” value on human recombinant Top1 (Table 1) and on human recombinant Top1 (Table 2) was “+++” each time.
Turning to `COc1cc2c3c(n(CCCN4CCOCC4)c(=O)c2cc1OC)-c1ncccc1C3=O` [Compound 22, 7-Aza-5,6-d hydro-6-(3-morpholinopropyl)-2,3-dimethoxy-5,11-dioxo-11H-indeno[1,2-c]isoquinolineHydrochloride], the GI50 in the series with SF-539 turned out to be 290 nM; in the series with MCF7, 52 nM; in the series on HOP-62, 300 nM; with DU-145, 310 nM; with HCT-116, 220 nM; in the series with OVCAR-3, 370 nM. For the same molecule, in the series with SN12C, growth was halved (GI50) at 520 nM. Besides, the “MGM (mean graph midpoint for growth inhibition)” value in series [1] (Table 1) and in [1] (Table 2) was 0.30 µM throughout. The “Top1 Cleavage” value at human recombinant Top1 (Table 1) and on human recombinant Top1 (Table 2) was “++” throughout.
Turning to `O=C1c2cccnc2-c2c1c1ccccc1c(=O)n2CCCn1ccnc1` [Compound 28, 7-Aza-5,6-dihydro-6-(3-(1H-imidazol-1-yl)propyl)-5,11-dioxo-11H-indeno[1,2-c]isoquinoline], the GI50 with SF-539 came to 5130 nM; in the series with MCF7, 3390 nM; in the series with HOP-62 it was 7240 nM; in the series on UACC-62, 35500 nM; in the series on DU-145 it was 2880 nM; in the series with HCT-116, 1200 nM. The GI50 was found to be 8710 nM with OVCAR-3 and 3720 nM with SN12C. Moreover, the “MGM (mean graph midpoint for growth inhibition)” value in series [1] (Table 1) was found to be 7.24 µM. The “Top1 Cleavage” value at human recombinant Top1 (Table 1) is reported as “++”.
For the molecule `Cl.O=C1c2cccnc2-c2c1c1ccccc1c(=O)n2CCCNCCO` [Compound 30, 7-Aza-5,6-dihydro-6-(3-(2-hydroxyethylamino)propyl)-5,11-dioxo-11H-indeno[1,2-c]isoquinoline Hydrochloride], the GI50 in the series with SF-539 amounted to 870 nM; in the series on MCF7, 480 nM; in the series on HOP-62 it was 1410 nM; in the series on UACC-62 it was 3090 nM; with DU-145, 410 nM; in the series with HCT-116, 300 nM. The GI50 stood at 1550 nM with OVCAR-3 and 760 nM with SN12C. The “MGM (mean graph midpoint for growth inhibition)” value in series [1] (Table 1) is 1.29 µM. Moreover, the “Top1 Cleavage” value at human recombinant Top1 (Table 1) is given as “+ (+ weak activity;)”.
Consider `COc1cc2c3c(n(CCCNCCO)c(=O)c2cc1OC)-c1ncccc1C3=O.Cl` [Compound 31, 7-Aza-5,6-dihydro-6-(3-(2-hydroxyethylamino)propyl)-2,3-dimethoxy-5,11-dioxo-11H-indeno[1,2-c]isoquinoline Hydrochloride], for which the GI50 in the series on SF-539 was determined as 260 nM; in the series on MCF7, 74 nM; in the series on HOP-62, 300 nM; with UACC-62, 120 nM; in the series on DU-145, 320 nM; in the series with HCT-116 it was 150 nM. The GI50 turned out to be 340 nM with OVCAR-3 and 230 nM with SN12C. The “MGM (mean graph midpoint for growth inhibition)” value in series [1] (Table 1) was determined as 0.29 µM.
For the molecule `COc1cc2c3c(n(CCCN)c(=O)c2cc1OC)-c1ncccc1C3=O.Cl` [Compound 32, 7-Aza-5,6-dihydro-6-(3-aminopropyl)-2,3-dimethoxy-5,11-dioxo-11H-indeno[1,2-c]isoquinoline Hydrochloride], the GI50 in the series with SF-539 stood at 2190 nM; in the series on MCF7, 49000 nM; in the series with HOP-62, 3020 nM; in the series on UACC-62 it was 8130 nM; in the series with DU-145, 1620 nM; in the series with HCT-116 it was 380 nM. In addition, the GI50 with OVCAR-3 came out at 1580 nM; with SN12C it was 2880 nM. The “MGM (mean graph midpoint for growth inhibition)” value in series [1] (Table 1) is 2.09 µM.
For the molecule `COc1cc2c3c(n(CCCN(C)C)c(=O)c2cc1OC)-c1ccccc1C3=O` [Compound 34, reference compound], the GI50 worked out at 6170 nM with SF-539 (Homo sapiens, 48 h, read-out: cytotoxicity (GI50) CNS SF-539, 48 h, sulforhodamine B, single determination, Table 1); 6170 nM in the series with MCF7 (setting [2]); 11500 nM in the series with HOP-62 (setting [3]); 6610 nM in the series with UACC-62 (setting [4]); 4470 nM in the series with DU-145 (Homo sapiens, DU-145, 48 h, read-out: cytotoxicity (GI50) prostate DU-145, 48 h, sulforhodamine B, single determination, Table 1); 2450 nM with HCT-116 (setting [5]). Further, the GI50 in the series on OVCAR-3 (setting [6]) was 5890 nM; with SN12C (setting [7]), 11000 nM. In addition, the “MGM (mean graph midpoint for growth inhibition)” value in [1] (Table 1) amounted to 6.17 µM.
Take `COc1cnc2c(c1)C(=O)c1c-2n(CCCN(C)C)c(=O)c2cc(OC)c(OC)cc12.Cl` [Compound 55, 7-Aza-5,6-dihydro-6-(3-dimethylaminopropyl)-2,3,9-trimethoxy-5,11-dioxo-11H-indeno[1,2-c]isoquinoline Hydrochloride]: the GI50 in the series with SF-539 turned out to be 1100 nM; in the series on MCF7, 130 nM; in the series with HOP-62, 920 nM; in the series on UACC-62 it was 3900 nM; with DU-145, 880 nM; with HCT-116, 1500 nM. For the same molecule, the 50% growth inhibitory concentration (GI50) in the series with OVCAR-3 was found to be 2900 nM; in the series with SN12C, 3600 nM. In addition, the “MGM (mean graph midpoint for growth inhibition)” value in [1] (Table 2) amounted to 1.8 µM. In addition, on human recombinant Top1 (Table 2), the “Top1 Cleavage” value is reported as “+++”.
